Data set [1] is described as follows: Amount of fragrance ingredients retained on paper blotter after evaporation (ethanol extraction, GC-MS). Format: physicochemical. To be noted: Table 9. In short, it runs like this:
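100 µL of fragrance formulation applied to paper blotters kept at 32°C open to air; at each time three blotters extracted 1 h in ethanol with methyl decanoate internal standard and analysed by GC-MS (HP-5MS, 50–280°C). Amounts averaged over triplicates and expressed as percent of time-zero level.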

A short description of data set [2]: Headspace concentration of fragrance ingredients over blotter (thermal desorption GC-MS). Format: physicochemical. The following applies: COM1 dosed at 20 wt%. Here is the method: The headspace concentration of individual ingredients of fragrance TAK, as formulated in either a conventional EdT (EdT1) or a fragrance composition of the invention (C1), was assessed by the method described below.
A 10 cm length was cut from a standard perfumers' blotter. A sample of 100µL volume was applied to the upper surface of the blotter with a syringe. The blotter was placed on a hot plate thermostatted at 32°C and left to equilibrate for 5 minutes. Two desorption tubes (6cm length 4mm internal diameter) each containing 2 cm length of Tenax TA adsorbent were fitted to the glass part of a headspace apparatus shown in figure 9. The glass part was fitted over the blotter, a metering pump was connected to one of the desorption tubes and air was drawn through the apparatus flushing the headspace over the blotter at a rate of 17mL/min. Sampling continued for about 16.5 minutes until 280mL of air had been extracted. Then the outlet desorption tube was analysed by gas chromatography as described below. The glass part was removed from the blotter which was left on the hotplate until the next sampling time when two fresh desorption tubes were fitted and the extraction procedure repeated for a further 280mL of extracted headspace.
• Initial Temp: 50°C • Initial Time: 5 min • Rate: 3°C /min • Final Temp: 250°C • Final Time: 20 min • Run Time: 91.67 min
• Column: HP-5MS 30m * 0.25mm * 0.25µm • Gas: Helium • Constant pressure 12.675 psi
• Initial Temp: -30°C • Equilibration Time: 0.05 min • Initial Time: 0.00 min • Rate 12°C / min • End Temp: 260°C • Hold Time: 10 min
Temperature program • Initial Temp: 35°C • Delay Time: 0.30 min • Initial Time: 0.00 min • Rate: 30°C / min • End Temp: 250°C • Hold Time: 5.00 min
TDU Settings • Transfer Temp: 250°C • Transfer Temp Mode: Fixed • Desorption Mode: splitless • Sample mode: Retain tube - standby cooling • Standby Temp: 50°C
Detector MS • MS 5973 • Mass range: 35 to 350 • Threshold: 150 • Mass Quad: 150°C • Mass Source: 230°C
Following the procedure of example 2, the headspace concentration of representative ingredients of fragrance COM1 was determined. COM1 was dosed at 5 and 20 % either in control EdT3 and EdT4 or in compositions of the invention C7 and C8, as shown in table 10.
The headspace concentration of individual ingredients of fragrance TAK (see Table 1), as formulated in either a conventional EdT (EdT1) or fragrance compositions of the invention (C14, C15), was assessed by the method described in example 2.

[3] abbreviates: fragrance COM1 in C5, T0 + 15 min.
Setting [4] is: fragrance COM1 in C5, T0 + 480 min.
Setting [5] is: fragrance COM1 in C5, T0 +1440 min.
Setting [6] is: fragrance COM1 in C6, T0 + 15 min.
The mark [7] stands for this setting: fragrance COM1 in C6, T0 + 480 min.
Setting [8] is: fragrance COM1 in C6, T0 +1440 min.
Where [9] appears, read: fragrance COM1 in EdT2, C5 or C6, T0, set at 100% (normalisation).
The mark [10] stands for this setting: fragrance COM1 in EdT2, T0 + 15 min.
[11] abbreviates: fragrance COM1 in EdT2, T0 + 480 min.
[12] abbreviates: fragrance COM1 in EdT2, T0 +1440 min.

Structures are written as SMILES.

Regarding `C=CC(C)(O)CCC=C(C)CC` (mixture of isomers) [Ethyl Linalool, Ethyl linalool], the “amount of fragrance ingredient retained on blotter (percentage of the initial amount)” value (“amount … (percentage of the initial amount)” for short) in data set [1] (setting [3]) came to 80.96%; in data set [1] (setting [4]), 8.4%; in data set [1] (setting [5]), 2.22%; in data set [1] (setting [6]) it was 70.8%; in data set [1] (setting [7]), 6.9%; in data set [1] (setting [8]), 2.6%. Moreover, the “amount … (percentage of the initial amount)” value in data set [1] (setting [9]) was 100%; in data set [1] (setting [10]), 67.48%; in data set [1] (setting [11]), 9.91%; in data set [1] (setting [12]) it was 7.26%. Moreover, the “headspace concentration in composition C8 compared to control EdT4” value in data set [2] (up to 8 hours, Figures 8 to 10) is listed as “significantly higher”.
Consider `CC/C=C(\C)C(O)CCCCC` (stereo not shown) [Undecavertol™, (E)-4-methyldec-3-en-5-ol], for which the “amount … (percentage of the initial amount)” value amounted to 84.6% in data set [1] (setting [3]); 19.1% in data set [1] (setting [4]); 2.62% in data set [1] (setting [5]); 73.2% in data set [1] (setting [6]); 14% in data set [1] (setting [7]); 3.1% in data set [1] (setting [8]). Besides, the “amount … (percentage of the initial amount)” value is recorded as 100% in data set [1] (setting [9]), 75.7% in data set [1] (setting [10]), 8.41% in data set [1] (setting [11]) and 4.93% in data set [1] (setting [12]). In addition, in data set [2] (after 8 hours), the “presence in the headspace of composition C8 compared to control EdT4” value is given as “more present”.

The values above are taken from patent EP3375430A1, “FRAGRANCE COMPOSITIONS” (Takasago International Corporation, priority 2017, dated 2018).
